Data reported in ChEMBL document CHEMBL1139319, “Notoamides F-K, prenylated indole alkaloids isolated from a marine-derived Aspergillus sp” (J Nat Prod, 2008).
≈ marks a conversion by molar mass, not a printed value.

These molecules were tested on HeLa (assay: Cytotoxicity against human HeLa cells after 3 days by MTT assay). Conditions: 72 h.
Type: functional, cell-based

SMILES	IC50 [µg/mL]
C=CC(C)(C)[C@@]12Nc3c(ccc4c3C=CC(C)(C)O4)[C@]1(O)C[C@]1(O)C(=O)N3CCC[C@H]3C(=O)N21 [NOTOAMIDE K]	> 50
CC1(C)C=Cc2c(ccc3c4c([nH]c23)C(C)(C)[C@@H]2C[C@]35CCCN3C(=O)[C@]2(NC5=O)C4=O)O1 [NOTOAMIDE I]	21 (≈ 47.1 µM)
C=CC(C)(C)[C@]1(C[C@@H]2NC(=O)[C@@H]3CCCN3C2=O)C(=O)Nc2cc(O)ccc21 [NOTOAMIDE J]	> 50
CO[C@H]1c2c([nH]c3c4c(ccc23)OC(C)(C)C=C4)C(C)(C)[C@@H]2C[C@]34CCCN3C(=O)[C@]12NC4=O [NOTOAMIDE F]	> 50
